Test results: patent US9468624B2, “Small molecule antagonists of bacterial quorum-sensing receptors” (priority 2008, dated 2016)

Tests used:
CviR [1] = biological target: T1, CviR (Chromobacterium violaceum, UniProt D3W065); settings: CviR expressed in E. coli, whole cell vs soluble extract, ligand 50 μM
Procedure: (§1) CviR Overexpression and Purification. CviR was overexpressed in BL21(DE3) pLysS by growing an overnight culture in LB supplemented with 100 μg/mL ampicillin and 10 μg/mL chloramphenicol. The culture was diluted 1:50 into fresh LB supplemented with 100 μg/mL ampicillin and 10 μg/mL chloramphenicol and grown shaking at 37° C. to an OD600 of 0.4. Various AHL or antagonist molecules were added to at 50 μM and incubated an additional 30 minutes at 30° C., after which expression was induced by the addition of 100 μM IPTG (isopropyl-β-D-thiogalactopyranoside) for 4 hours at 30° C. Cells were harvested by centrifugation and lysed in 20 mM imidazole pH 8.0, 100 mM NaCl, 0.5 mM EDTA and 5% glycerol via a Micro-fluidizer processor (MicroFluidics). Protein was purified via ion-exchange using a Hitrap Heparin HP column (GE Healthcare). Protein was eluted with a 100 mM to 1 M NaCl gradient. Fractions containing CviR were pooled and diluted in lysis buffer devoid of NaCl, and then further purified by cation exchange chromatography using a Hitrap SP HP column (GE Healthcare). CviR was eluted with a 100 mM to 1 M NaCl gradient.
The solubility characteristics of CviR were analyzed in the presence of the various molecules under study. […] As controls, the protein was also expressed in the absence of any AHL or antagonist. In each case, whole cell and soluble fractions of cell lysates were analyzed by SDS-PAGE to assess whether the CviR protein in question had been stabilized.

CviR [2] = biological target: T1, CviR; type: cell-based; parameters: made in house; host or cells: E. coli BL21(DE3) pLysS, plasmid pET23b; settings: for induction of vioA-gfp expression through CviR: even at 100 μM; for EC50: E. coli expressing CviR, vioA-gfp reporter, read-out: EC50 for activation of vioA-gfp expression; for maximal level of vioA-gfp expression: compared with C6-HSL
Procedure: (§2) The vioA-gfp promoter fusion was constructed by amplifying the vioA promoter and cloning this region upstream of gfp in pEVS141 at the SphI and SalI sites. Cells containing the vioA-gfp construct were electroporated with the pET23 carrying cviR and selected on LB medium supplemented with 75 μg/mL ampicillin and 50 μg/mL kanamycin. The E. coli strain containing cviR and the vio:gfp reporter is named ELS1257.
(§3) E. coli strains were grown overnight in LB medium with antibiotics at 37° C. and sub-cultured into fresh medium at a 1:100 dilution. Various AHL and antagonists were added at constant concentrations or titrated as stated. The gfp was measured on an Envision plate reader after 5 hours of growth at 37° C. C. violaceum strains were grown aerobically in 1 mL Nutrient Broth plus 1 mM tryptophan at 30° C. […] Cells were collected via centrifugation at 13000 rpm for 15 minutes. Pellets were resuspended in 1 mL of methanol and incubated at 42° C. for 1 hour. Samples were again collected via centrifugation at 13000 rpm for 5 minutes and analyzed for violacein by measuring optical density at 568 nm on a Beckman Coulter DU-800 spectrophotometer. For the dose-response analyses, all assays were performed in triplicate.
To examine the specificity and sensitivity of CviR, an E. coli strain was engineered that expresses CviR and contains a plasmid harboring the vioA promoter fused to green fluorescent protein (gfp). Thus, the ability of CviR to activate transcription can be assessed by measuring gfp expression in the presence of various molecules.

CviR [3] = biological target: T1, CviR; assay: cell-based; type: cell-based; parameters: made in house; host or cells: E. coli BL21(DE3) pLysS, plasmid pET23b; settings: constant 500 nM C6-HSL; read-out: IC50 for inhibition of vioA-gfp expression
Procedure: as §2, §3
However, binding of the longer acyl-tail length AHL molecules disrupts the transcriptional activation ability of CviR.
To determine if 4606-4237 inhibits violacein production specifically by interfering with CviR, 4606-4237 was tested for antagonism of CviR in the recombinant E. coli vioA-gfp assay. For these experiments, C6-HSL was held constant at 500 nM, while 4606-4237 was titrated from 1.3 nM to 100 μM (FIG. 3D). […] Importantly, no C. violaceum components other than CviR are present in the recombinant E. coli assay strain. Thus, any inhibition occurring would be due to a specific interaction between the antagonist molecule 4606-4237 and CviR rather than an interaction of 4606-4237 with some unknown component required for violacein production in C. violaceum.

CviR [4] = biological target: T1, CviR; type: binding; parameters: made in house; host or cells: E. coli BL21(DE3) pLysS, plasmid pET23b; settings: for DNA binding of ligand-loaded CviR to vioA promoter: CviR 100-500 nM
Procedure: as §1
DNA probes for gel mobility shift analyses were generated by standard polymerase chain reaction using primers with a 5′ 6-FAM (fluorescein) tag (Integrated DNA Technologies). The target probe contained about 100 nucleotides of the vioA promoter. The control probe contained 300 bases of vioB intergenic DNA. 37 ng of each probe was incubated for 20 minutes at room temperature with the indicated amounts of CviR (0, 0.1, 0.2, 0.3, 0.4 and 0.5 μM) and 1 μg/μL poly-dIdC in 1× Gel shift buffer (40 mM Tris HCl pH 8.0, 100 mM KCL, 2 mM EDTA, 2 mM DTT, 10% glycerol, 200 μg/mL BSA). Gel mobility shifts were performed on 6% TGE-polyacrylamide gels and visualized using a Storm 860 Imaging System (Molecular Dynamics).
To further investigate the mechanism underlying antagonism of the CviR receptor, an examination was undertaken of whether the soluble CviR antagonist complexes were incapable of binding DNA, and thus unable to activate transcription. […] The CviR protein was also purified in complex with each of the synthetic antagonist molecules, 4606-4237, CTL, and CL. Performance of DNA gel mobility shift analyses enabled assessment of the binding of each of these purified, loaded protein complexes to the vioA promoter.
The reciprocal experiment tested whether C6-HSL could replace CL bound to CviR.

[5] = tested on: CviR-dependent violacein production; assay: Violacein production in C. violaceum cviI mutant with exogenous C6-HSL; type: cell-based, Chromobacterium violaceum; settings: 5 μM C6-HSL, 50 μM antagonist
Procedure: as §3
High-throughput chemical library screens had identified 15 molecules that inhibit AHL detection by the membrane-bound two-component AHL receptor LuxN (structures are provided in FIG. 8A). Experiments were undertaken to establish whether any of these LuxN antagonist molecules could also interfere with AHL binding to CviR. […] The native C6-HSL signal was added exogenously and held constant at 5 μM and violacein production was measured in the presence of 50 μM of each potential antagonist (FIG. 8B).

bacterial growth = assay: Bacterial growth in presence of antagonist; type: cell-based, Chromobacterium violaceum
[6] = tested on: CviR-dependent violacein production; assay: Violacein production in wild type C. violaceum, dose-response; type: cell-based; settings: Chromobacterium violaceum, read-out: IC50 for inhibition of violacein production
Procedure: as §3
To determine if 4606-4237 inhibits violacein production specifically by interfering with CviR, 4606-4237 was tested for antagonism of CviR in the recombinant E. coli vioA-gfp assay. For these experiments, C6-HSL was held constant at 500 nM, while 4606-4237 was titrated from 1.3 nM to 100 μM (FIG. 3D). This concentration of native C6-HSL signal induces maximal gfp production in this heterologous assay system. Importantly, no C. violaceum components other than CviR are present in the recombinant E. coli assay strain. Thus, any inhibition occurring would be due to a specific interaction between the antagonist molecule 4606-4237 and CviR rather than an interaction of 4606-4237 with some unknown component required for violacein production in C. violaceum. […] Thus, 4606-4237 functions by disabling CviR-mediated activation of gene expression in both the C. violaceum in vivo violacein assay and the recombinant E. coli vioA-gfp assay.

[7] = tested on: C. violaceum killing of C. elegans; assay: C. elegans life span assay following C. violaceum infection; type: in vivo, Caenorhabditis elegans; settings: C. violaceum cviI mutant
Procedure: Life Span Assays. C. elegans lifespan assays were completed with at least 100 wild type N2 worms for each condition. C. elegans eggs were harvested from a large population of gravid adults using a standard bleaching protocol (30 mL 5% bleach, 15 mL N KOH, 55 mL DH2O). Harvested eggs were placed on lawns of fresh E. coli OP50 and allowed to hatch and grow to the young adult (L4) stage before being moved onto lawns of C. violaceum. Worms were scored for survival each day and transferred to new C. violaceum lawns every two days until all worms had expired.
In the presence of the mutant strain, the median C. elegans lifespan is twelve days (FIG. 7A; DMSO control). Exogenous addition of the native autoinducer molecule, C6-HSL restored quorum sensing and complemented the cviI mutant's ability to kill C. elegans (median lifespan=4 days, FIG. 7A).

T1 sequence (D3W065 1-265): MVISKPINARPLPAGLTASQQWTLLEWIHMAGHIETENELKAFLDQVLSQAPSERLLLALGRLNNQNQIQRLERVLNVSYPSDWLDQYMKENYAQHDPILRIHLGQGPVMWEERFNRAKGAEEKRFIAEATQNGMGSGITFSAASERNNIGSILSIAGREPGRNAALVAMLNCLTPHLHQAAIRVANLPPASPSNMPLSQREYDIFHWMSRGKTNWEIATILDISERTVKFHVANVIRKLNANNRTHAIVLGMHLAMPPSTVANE

For `CCCCCCCCCC(=O)N[C@H]1CCOC1=O` [C10-HSL, reference compound], the “CviR folding and solubility in presence of ligand” value (CviR [1]) was “soluble”, the “induction of vioA-gfp expression through CviR” value (shortened to “induction”) (CviR [2]) was “do not induce vioA-gfp expression” and the IC50 (CviR [3]) was 208 nM. For the same compound, the “DNA binding of ligand-loaded CviR to vioA promoter” value (shortened to “DNA binding of ligand-loaded CviR”) (CviR [4]) was “does not abolish DNA binding”.

`CCCCCCCCCCCCCC(=O)N[C@H]1CCOC1=O` [C14-HSL] was tested, and the “induction” value (CviR [2]) was “do not induce vioA-gfp expression”, the IC50 (CviR [3]) was 268 nM and the “DNA binding of ligand-loaded CviR” value (CviR [4]) was “no ability to bind DNA”.

In the case of `Cc1cc(Cl)ccc1OCCCC(=O)NC1CCSC1=O` (centres unmarked) [4606-4237, 4-(4-chloro-2-methylphenoxy)-N-(2-oxotetrahydrothiophen-3-yl)butanamide], the violacein production [5] is reported as “completely abolished violacein production”, the “inhibition of bacterial growth” value (bacterial growth) is reported as “does not inhibit bacterial growth” and the IC50 [6] is reported as 1200 nM. The “C. elegans median survival” value ([7]; C6-HSL 5 μM and 4606-4237 50 μM added simultaneously) was “twelve”, the “effect on C. elegans” value ([7]; no C6-HSL, 4606-4237 50 μM) was “had little affect on C. elegans” and the “DNA binding of ligand-loaded CviR” value (CviR [4]) was “no ability to bind DNA”.

`CCCCCC(=O)N[C@H]1CCOC1=O` [C6-HSL, C6-homoserine lactone] was tested, and the “CviR folding and solubility in presence of ligand” value (CviR [1]) was “soluble”, the “median C. elegans lifespan” value ([7]; C6-HSL 5 μM added) was 4 days and the EC50 (CviR [2]) was 75 nM. For the same compound, the “ligand exchange on loaded CviR, effect on DNA binding” value (CviR [4]; 500 nM loaded CviR, competing ligand 0-10 μM) was “not likewise capable of replacing CL to generate fully competent DNA bound complex” and the “DNA binding of ligand-loaded CviR” value (CviR [4]) was “binds DNA with high affinity”.

`CCCCCCCC(=O)N[C@H]1CCOC1=O` [C8-HSL] was tested, and the EC50 (CviR [2]) was 30 nM, the “maximal level of vioA-gfp expression” value (CviR [2]) was “half of the maximal vioA-gfp expression induced by C6-HSL” and the “DNA binding of ligand-loaded CviR” value (CviR [4]) was “bound DNA with similar affinity to the C6-HSL loaded CviR complex”.

With `CCCC(=O)N[C@H]1CCOC1=O` [C4-HSL] the EC50 (CviR [2]) was 12000 nM and the “maximal level of vioA-gfp expression” value (CviR [2]) was “can induce maximal vioA-gfp expression”.

For `CCCCCCCCCCCC(=O)N[C@H]1CCOC1=O` [C12-HSL], the “induction” value (CviR [2]) was “do not induce vioA-gfp expression”, the IC50 (CviR [3]) was 494 nM and the “DNA binding of ligand-loaded CviR” value (CviR [4]) was “no ability to bind DNA”.
